Values quoted from earlier work, collected in paper PMC5907794 (Journal of Medicinal Chemistry, 2018).

What was measured:
[1] = ref 60−63
[2] = ref 60−62

CC(=O)O[C@H]1C(=O)[C@@]2(C)[C@H]([C@H](OC(=O)c3ccccc3)[C@]3(O)C[C@H](OC(=O)[C@H](O)[C@@H](NC(=O)c4ccccc4)c4ccccc4)C(C)=C1C3(C)C)[C@]1(OC(C)=O)CO[C@@H]1C[C@@H]2O [Paclitaxel, paclitaxel]
Dose-limiting side effects [1]: severe dose-limiting side effects | Solubility in aqueous media (in words) [2]: low solubility in aqueous media
